US9695151B2, “3,4-dihydro-2H-isoquinoline-1-one and 2,3-dihydro-isoindol-1-one compounds” (Hoffmann-La Roche Inc., priority 2013, dated 2017)

Key:
[1] = test system: rat model of chronic kidney disease; conditions: cited from earlier work; for cardiac and aortic medial hypertrophy / renal effects (albuminuria, azotemia, renovascular hypertrophy, glomerular injury, PAI-1 and osteopontin mRNA, tubulointerstitial fibrosis): angiotensin II and high salt treatment; for angiotensin II and salt-stimulated PAI-1 mRNA expression: aorta and heart
[2] = biological target: T1, CYP11B2 (Homo sapiens (Human), UniProt P19099); conditions: patients with primary aldosteronism, oral; cited from earlier work
T1 sequence (P19099 25-503): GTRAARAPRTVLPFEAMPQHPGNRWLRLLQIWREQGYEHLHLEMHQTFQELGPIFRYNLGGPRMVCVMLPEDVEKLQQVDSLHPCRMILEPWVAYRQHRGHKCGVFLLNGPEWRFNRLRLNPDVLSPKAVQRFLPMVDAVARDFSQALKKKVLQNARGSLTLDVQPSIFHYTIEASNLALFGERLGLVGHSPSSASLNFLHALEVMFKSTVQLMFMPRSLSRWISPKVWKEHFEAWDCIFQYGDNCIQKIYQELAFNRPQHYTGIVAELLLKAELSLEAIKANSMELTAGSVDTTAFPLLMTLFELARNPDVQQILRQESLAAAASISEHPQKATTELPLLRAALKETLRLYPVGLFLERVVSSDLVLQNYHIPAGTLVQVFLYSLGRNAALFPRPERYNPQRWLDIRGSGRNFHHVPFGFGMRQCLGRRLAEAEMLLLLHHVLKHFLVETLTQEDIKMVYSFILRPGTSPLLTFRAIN

[3] = biological target: human CYP11B1 (Homo sapiens (Human), UniProt P15538); experiment: G-402 cellular enzyme assay, human CYP11B1 (cortisol release); format: cell-based; conditions: G-402 cells, 1 μM Deoxycortisol
Chain of human CYP11B1 (P15538 25-503): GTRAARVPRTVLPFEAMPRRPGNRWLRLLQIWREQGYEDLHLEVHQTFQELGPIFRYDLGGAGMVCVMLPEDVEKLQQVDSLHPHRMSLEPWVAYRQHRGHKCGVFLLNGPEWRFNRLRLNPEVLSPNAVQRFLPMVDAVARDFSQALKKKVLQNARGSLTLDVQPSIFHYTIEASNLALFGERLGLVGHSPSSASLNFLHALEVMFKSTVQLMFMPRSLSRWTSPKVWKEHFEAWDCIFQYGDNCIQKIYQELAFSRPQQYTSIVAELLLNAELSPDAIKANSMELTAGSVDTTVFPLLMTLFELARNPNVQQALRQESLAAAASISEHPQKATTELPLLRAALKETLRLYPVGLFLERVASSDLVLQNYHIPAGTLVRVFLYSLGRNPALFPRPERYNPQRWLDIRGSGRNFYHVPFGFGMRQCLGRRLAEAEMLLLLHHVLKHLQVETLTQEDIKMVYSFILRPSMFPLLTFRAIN
Source text: (§1) Herein we identified the use of the G-402 cell line as a host cell to ectopically express (transiently or stably) enzymes of the CYP11 family. Specifically we developed stable G-402 cells expressing ectopically human CYP11B1, human CYP11B2, human CYP11A1, cynmolgus CYP11B1 or cynomolgus CYP11B2 enzyme activity. Importantly the identified cell line G-402 expresses co-factors (adrenodoxin and adrenodoxin reductase) important for the activity of the CYP11 family and no relevant enzyme activity of the CYP11 family (in comparison to H295R cells) was detected in these cells. Therefore the G-402 cell line is uniquely suited as a host cell for the ectopic expression of enzymes from the CYP11 family.
(§2) G-402 cells can be obtained from ATCC (CRL-1440) and were originally derived from a renal leiomyoblastoma.
(§3) The expression plasmids contains the ORF for either human/cyno CYP11B1 or CYP11B2 under the control of a suitable promoter (CMV-promoter) and a suitable resistance marker (neomycin). Using standard techniques the expression plasmid is transfected into G-402 cells and these cells are then selected for expressing the given resistance markers. Individual cell-clones are then selected and assessed for displaying the desired enzymatic activity using 11-Deoxycorticosterone (Cyp11B2) or 11-Deoxycortisol (Cyp11B1) as a substrate.
(§4) G-402 cells expressing CYP11 constructs were established as described above and maintained in McCoy's 5a Medium Modified, ATCC Catalog No. 30-2007 containing 10% FCS and 400 μg/ml G418 (Geneticin) at 37° C. under an atmosphere of 5% CO2/95% air. Cellular enzyme assays were performed in DMEM/F12 medium containing 2.5% charcoal treated FCS and appropriate concentration of substrate (0.3-10 uM 11-Deoxycorticosterone, 11-Deoxycortisol or Corticosterone). For assaying enzymatic activity, cells were plated onto 96 well plates and incubated for 16 h. An aliquot of the supernatant is then transferred and analyzed for the concentration of the expected product (Aldosterone for CYP11B2; Cortisol for CYP11B1). The concentrations of these steroids can be determined using HTRF assays from CisBio analyzing either Aldosterone or Cortisol.
(§5) Inhibition of the release of produced steroids can be used as a measure of the respective enzyme inhibition by test compounds added during the cellular enzyme assay. The dose dependent inhibition of enzymatic activity by a compound is calculated by means of plotting added inhibitor concentrations (x-axes) vs. measured steroid/product level (y-axes). The inhibition is then calculated by fitting the following 4-parameter sigmoidal function (Morgan-Mercer-Flodin (MMF) model) to the raw data points using the least squares method:
(§6) [formula] wherein, A is the maximum y value, B is the EC50 factor determined using XLFit, C is the minimum y value and D is the slope value.
(§7) EC50 values for compounds claimed herein were tested with the G402-based assay system described. Cyp11B2 enzyme activity was tested in presence of 1 μM Deoxycorticosterone and variable amounts of inhibitors; Cyp11B1 enzyme activity was tested in presence of 1 μM Deoxycortisol and variable amounts of inhibitors.

[4] = biological target: T1, CYP11B2; experiment: G-402 cellular enzyme assay, human CYP11B2 (aldosterone release); format: cell-based; conditions: G-402 cells, 1 μM Deoxycorticosterone
Source text: as §1, §2, §3, §4, §5, §6, §7

[5] = test system: rats with experimental heart failure; conditions: rat, in vivo; cited from earlier work

Row | Structure (SMILES) | EC50 [3] [µM] | EC50 [4] [µM] | further results
1 | CC(=O)S[C@@H]1CC2=CC(=O)CC[C@]2(C)[C@H]2CC[C@@]3(C)[C@@H](CC[C@@]34CCC(=O)O4)[C@H]12 [spironolactone] |  |  | cardiac and aortic medial hypertrophy [1]: attenuated; renal effects (albuminuria, azotemia, renovascular hypertrophy, glomerular injury, PAI-1 and osteopontin mRNA, tubulointerstitial fibrosis) [1]: prevented; angiotensin II and salt-stimulated PAI-1 mRNA expression [1]: enhanced; aldosterone ([1]; at 4 and 8 weeks of treatment): increased
2 | N#Cc1ccc([C@H]2CCc3cncn32)c(F)c1 [LCI699] |  |  | blood pressure [2]: mildly decreased; circulating aldosterone levels [2]: significantly lower; hypokalemia [2]: corrected; selectivity (effects on the glucocorticoid axis) [2]: poor selectivity
3 | CN(c1cncc(N2C(=O)c3ccc(Cl)cc3C2(C)C)c1)C1CCN(S(C)(=O)=O)CC1 [Example 21, 5-Chloro-3,3-dimethyl-2-[5-[methyl-(1-methylsulfonylpiperidin-4-yl)amino]pyridin-3-yl]isoindol-1-one] | 0.003 | 0.003 | 
4 | CCS(=O)(=O)N1CC2(CC(Nc3cncc(N4C(=O)c5ccc(Cl)cc5C4(C)C)c3)C2)C1 [Example 37, 5-Chloro-2-[5-[(2-ethylsulfonyl-2-azaspiro[3.3]heptan-6-yl)amino]pyridin-3-yl]-3,3-dimethylisoindol-1-one] | 7.37 | 0.01 | 
5 | CN(c1cncc(N2C(=O)c3ccc(Cl)cc3C2(C)C)c1)C1CN(S(C)(=O)=O)C1 [Example 11, 5-Chloro-3,3-dimethyl-2-[5-[methyl-(1-methylsulfonylazetidin-3-yl)amino]pyridin-3-yl]isoindol-1-one] | 0.05 | 0.003 | 
6 | N#Cc1ccc([C@H]2CCCc3cncn32)cc1 [FAD286] |  |  | blood pressure and cardiovascular function and structure [5]: improved; kidney function and morphology [5]: improve; cardiac and aortic medial hypertrophy [1]: attenuated; renal effects (albuminuria, azotemia, renovascular hypertrophy, glomerular injury, PAI-1 and osteopontin mRNA, tubulointerstitial fibrosis) [1]: prevented; angiotensin II and salt-stimulated PAI-1 mRNA expression [1]: not; plasma aldosterone ([1]; following 4 weeks of treatment): reduced
7 | CCCS(=O)(=O)N1CCC(N(C)c2cncc(N3C(=O)c4ccc(Cl)cc4C3(C)C)c2)C1 (single isomer, unassigned) [Example 18, 5-Chloro-3,3-dimethyl-2-[5-[methyl-[(3R or 3S)-1-propylsulfonylpyrrolidin-3-yl]amino]pyridin-3-yl]isoindol-1-one] | 0.233 | 0.001 | 
8 | CCC(=O)N1CC(Nc2cncc(N3Cc4cc(Cl)ccc4C3=O)c2)C1 [Example 28, 5-Chloro-2-[5-[(1-propanoylazetidin-3-yl)amino]pyridin-3-yl]-3H-isoindol-1-one] | > 30 | 0.954 | 
9 | CC(C)S(=O)(=O)N1CC2(CC(Nc3cncc(N4C(=O)c5ccc(Cl)cc5C4(C)C)c3)C2)C1 [Example 38, 5-Chloro-3,3-dimethyl-2-[5-[(2-propan-2-ylsulfonyl-2-azaspiro[3.3]heptan-6-yl)amino]pyridin-3-yl]isoindol-1-one] | 8.23 | 0.011 | 
10 | CCC(=O)N1CCC(N(C)c2cncc(N3C(=O)c4ccc(Cl)cc4C3(C)C)c2)CC1 [Example 19, 5-Chloro-3,3-dimethyl-2-[5-[methyl-(1-propanoylpiperidin-4-yl)amino]pyridin-3-yl]isoindol-1-one] | 0.002 | 0.0007 | 

The remaining compounds from weak to strong by EC50 [3], led by results:

Row | EC50 [3] [µM] | EC50 [4] [µM] | Structure (SMILES) | further results
11 | 41.1 | 0.215 | CC(=O)N1CC(Nc2cncc(N3CCc4cc(Cl)ccc4C3=O)c2)C1 [Example 32, 2-[5-[(1-Acetylazetidin-3-yl)amino]pyridin-3-yl]-6-chloro-3,4-dihydroisoquinolin-1-one] | 
12 | 15.4 | 0.044 | CCC(=O)N1CC2(CC(Nc3cncc(N4C(=O)c5ccc(Cl)cc5C4(C)C)c3)C2)C1 [Example 36, 5-Chloro-3,3-dimethyl-2-[5-[(2-propanoyl-2-azaspiro[3.3]heptan-6-yl)amino]pyridin-3-yl]isoindol-1-one] | 
13 | 15.4 | 0.061 | CCS(=O)(=O)N1CC(Nc2cncc(N3CCc4cc(Cl)ccc4C3=O)c2)C1 [Example 30, 6-Chloro-2-[5-[(1-ethylsulfonylazetidin-3-yl)amino]pyridin-3-yl]-3,4-dihydroisoquinolin-1-one] | 
14 | 6.85 | 0.449 | CC(=O)N1CC2(CC(Nc3cncc(N4C(=O)c5ccc(Cl)cc5C4(C)C)c3)C2)C1 [Example 35, 2-[5-[(2-Acetyl-2-azaspiro[3.3]heptan-6-yl)amino]pyridin-3-yl]-5-chloro-3,3-dimethylisoindol-1-one] | 
15 | 4.53 | 0.07 | CCS(=O)(=O)N1CC(Nc2cncc(N3C(=O)c4ccc(Cl)cc4C3C)c2)C1 (centres unmarked) [Example 34, 5-Chloro-2-[5-[(1-ethylsulfonylazetidin-3-yl)amino]pyridin-3-yl]-3-methyl-3H-isoindol-1-one] | 
16 | 2.8 | 0.017 | CC1(C)c2cc(Cl)ccc2C(=O)N1c1cncc(NC2CN(S(C)(=O)=O)C2)c1 [Example 8, 5-Chloro-3,3-dimethyl-2-[5-[(1-methylsulfonylazetidin-3-yl)amino]pyridin-3-yl]isoindol-1-one] | 
17 | 2.45 | 0.031 | CC(=O)N1CCC(Nc2cncc(N3C(=O)c4ccc(Cl)cc4C3(C)C)c2)CC1 [Example 5, 2-[5-[(1-Acetylpiperidin-4-yl)amino]pyridin-3-yl]-5-chloro-3,3-dimethylisoindol-1-one] | 
18 | 1.54 | 0.004 | CCS(=O)(=O)N1CCC(Nc2cncc(N3C(=O)c4ccc(Cl)cc4C3(C)C)c2)CC1 [Example 6, 5-Chloro-2-[5-[(1-ethylsulfonylpiperidin-4-yl)amino]pyridin-3-yl]-3,3-dimethylisoindol-1-one] | 
19 | 0.117 | 0.0005 | CC(C)S(=O)(=O)N1CCC(N(C)c2cncc(N3C(=O)c4ccc(Cl)cc4C3(C)C)c2)C1 (single isomer, unassigned) [Example 16, 5-Chloro-3,3-dimethyl-2-[5-[methyl-[(3R or 3S)-1-propan-2-ylsulfonylpyrrolidin-3-yl]amino]pyridin-3-yl]isoindol-1-one] | 
20 | 0.039 | 0.0005 | CCS(=O)(=O)N1CC(N(C)c2cncc(N3C(=O)c4ccc(Cl)cc4C3(C)C)c2)C1 [Example 10, 5-Chloro-2-[5-[(1-ethylsulfonylazetidin-3-yl)-methylamino]pyridin-3-yl]-3,3-dimethylisoindol-1-one] | 
21 | 0.037 | 0.0005 | CC(C)S(=O)(=O)N1CC(N(C)c2cncc(N3C(=O)c4ccc(Cl)cc4C3(C)C)c2)C1 [Example 13, 5-Chloro-3,3-dimethyl-2-[5-[methyl-(1-propan-2-ylsulfonylazetidin-3-yl)amino]pyridin-3-yl]isoindol-1-one] | 
